Measurements taken from US9981950B2, “Triazoles as NR2B receptor inhibitors” (Janssen Pharmaceuticals, Inc., priority 2014, dated 2018).

Experiments:
hERG-receptor = hERG-receptor (Homo sapiens (Human), UniProt Q12809); test: HERGBD: inhibition of specific 3H-Dofetilide binding to the hERG-receptor; details: HEK cell membranes with human ERG, Hill-plot 2-parameter-model
In short: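 Membranes from HEK cells stably expressing human ERG incubated 90 min at RT with 1.5 nmol/l 3H-dofetilide in 20 mM HEPES/0.1 mM KCl pH 7.2, inhibitor in 1% DMSO. Nonspecific binding with […] dofetilide; bound ligand separated by filtration and scintillation counted.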

rat NR1/NR2B receptor [1] = biological target: T1, rat NR1/NR2B receptor (Rattus norvegicus (Rat), UniProt P35439+Q00960); test: RRNR2BB: inhibition of specific binding to the rat NR1/NR2B receptor; details: [3H]-Ifenprodil binding, rat brain membranes, Hill-plot 2-parameter-model
T1 sequence (Q00960 27-1482, other chains not shown): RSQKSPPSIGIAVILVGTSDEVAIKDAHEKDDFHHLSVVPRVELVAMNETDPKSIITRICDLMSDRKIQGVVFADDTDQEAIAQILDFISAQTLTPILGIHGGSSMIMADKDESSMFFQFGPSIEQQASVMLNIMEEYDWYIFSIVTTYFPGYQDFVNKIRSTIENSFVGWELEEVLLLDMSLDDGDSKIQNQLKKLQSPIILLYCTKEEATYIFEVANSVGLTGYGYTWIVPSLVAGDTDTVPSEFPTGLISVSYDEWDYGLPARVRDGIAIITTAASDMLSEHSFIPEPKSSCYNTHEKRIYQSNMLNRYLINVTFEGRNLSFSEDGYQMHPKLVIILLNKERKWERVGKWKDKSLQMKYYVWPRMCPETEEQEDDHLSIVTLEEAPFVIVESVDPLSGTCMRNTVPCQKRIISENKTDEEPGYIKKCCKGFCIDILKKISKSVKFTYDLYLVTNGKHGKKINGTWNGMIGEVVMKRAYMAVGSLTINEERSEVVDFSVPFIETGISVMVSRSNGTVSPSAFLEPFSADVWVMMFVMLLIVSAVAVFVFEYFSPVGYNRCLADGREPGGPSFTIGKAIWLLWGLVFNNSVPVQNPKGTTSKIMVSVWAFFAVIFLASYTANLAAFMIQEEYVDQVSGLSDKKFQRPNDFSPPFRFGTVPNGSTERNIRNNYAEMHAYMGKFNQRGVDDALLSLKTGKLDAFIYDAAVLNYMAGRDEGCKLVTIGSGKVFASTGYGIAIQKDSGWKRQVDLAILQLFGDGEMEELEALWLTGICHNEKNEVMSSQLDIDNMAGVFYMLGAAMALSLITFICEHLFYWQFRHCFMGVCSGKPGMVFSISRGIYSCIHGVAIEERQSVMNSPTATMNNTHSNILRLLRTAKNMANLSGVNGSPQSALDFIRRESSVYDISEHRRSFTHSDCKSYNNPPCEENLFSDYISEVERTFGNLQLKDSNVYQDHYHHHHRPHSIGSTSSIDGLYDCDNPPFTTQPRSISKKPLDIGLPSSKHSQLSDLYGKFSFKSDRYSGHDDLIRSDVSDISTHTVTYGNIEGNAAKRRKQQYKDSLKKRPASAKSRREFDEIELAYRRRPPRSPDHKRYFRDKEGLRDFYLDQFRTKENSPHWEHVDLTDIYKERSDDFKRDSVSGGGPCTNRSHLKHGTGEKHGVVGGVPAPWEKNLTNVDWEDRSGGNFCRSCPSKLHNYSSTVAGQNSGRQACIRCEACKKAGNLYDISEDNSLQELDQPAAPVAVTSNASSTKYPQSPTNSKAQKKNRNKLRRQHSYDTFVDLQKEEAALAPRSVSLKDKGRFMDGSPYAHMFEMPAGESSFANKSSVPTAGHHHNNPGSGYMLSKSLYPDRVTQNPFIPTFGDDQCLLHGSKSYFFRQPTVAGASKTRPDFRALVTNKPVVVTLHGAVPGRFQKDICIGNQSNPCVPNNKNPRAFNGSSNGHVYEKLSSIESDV
In short: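 Washed membranes from male Wistar rat forebrain (whole brain minus cerebellum) in 5 mM Tris/1 mM EDTA pH 7.4 used in ifenprodil-site binding, 60 min at 4° C. Nonspecific binding defined with […] CP101.606; bound separated by filtration on PEI-soaked filters. IC50 from Hill plot, 2-parameter model.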

rat NR1/NR2B receptor [2] = biological target: T1, rat NR1/NR2B receptor; test: NR2B binding assay: inhibition of specific [3H]-Ifenprodil binding to the rat NR1/NR2B receptor; details: rat brain membranes, Hill-plot 2-parameter-model
Procedure: Inhibition of Specific Binding to the Rat NR1/NR2B Receptor
Male Wistar rats (180 to 200 g) were killed by suffocation in a CO2 chamber for two minutes. Whole brains without cerebellum were removed and dissected on ice, placed into closed vials and stored at −70° C.
Membrane fractions were prepared and tested using standard techniques. At the time of the assay, 1 g of the brains was placed into 25 ml of 50 mM Tris/10 mM EDTA buffer, pH 7.1, (25 vol. per g of original tissue) and homogenized for 30 sec at 20000 rpm with an Ultraturrax T25 (Jahnke & Kunkel, IKA-Labortechnik, Staufen, Germany). The homogenate was centrifuged at 4° C. for 10 min at 48000 g (OPTIMA L-70, Beckman, Palo Alto, Calif. 94304, USA).
The supernatant was discarded and the pellet was homogenized on ice for 30 sec at 20000 rpm with an Ultraturrax and again centrifuged at 48000 g for 30 minutes at 4° C. The resulted pellet was resuspended in 25 ml of 50 mM Tris/10 mM EDTA buffer, homogenized for 30 sec with an Ultraturrax, aliquoted, frozen at −70° C. and stored until use.
After thawing on the day of the assay, a 5 ml membrane aliquot was centrifuged at 48000 g for 30 min at 4° C. The pellet was resuspended in 5 ml of 5 mM Tris/1 mM EDTA buffer, pH 7.4, homogenized for 30 sec at 20000 rpm with an Ultraturrax and centrifuged at 48000 g for 30 min at 4° C. This was repeated twice. The final pellet was homogenized in 5 ml of 5 mM Tris/l mM EDTA buffer at 4° C. with an Ultraturrax and used for the Ifenprodil-binding assay as described in the following.
Nonspecific binding was estimated in the presence of […] CP101.606. The samples were incubated for 60 min. at 4° C.
The incubation was terminated by filtration of the membrane preparations using Filtermat B (Pharmacia, Uppsala Sweden) and a Micro Cell Harvester (Skatron, Lier, Norway). The Filtermat B had been presoaked with 1% polyethylene imine and carefully washed with 50 mM Tris/HCl-buffer pH 7.7 after the filtration to separate free and bound radioactivity.
The optimal amount of membrane preparation in the assay had been determined and optimized for each membrane preparation separately before the test.
For pipetting of the incubation mixture we routinely used the robot Biomek2000 (Fa. Beckman).
For determination of IC50 values the Hill-plot, 2-parameter-model was used.

hERG-receptor, sequence (Q12809 whole entry): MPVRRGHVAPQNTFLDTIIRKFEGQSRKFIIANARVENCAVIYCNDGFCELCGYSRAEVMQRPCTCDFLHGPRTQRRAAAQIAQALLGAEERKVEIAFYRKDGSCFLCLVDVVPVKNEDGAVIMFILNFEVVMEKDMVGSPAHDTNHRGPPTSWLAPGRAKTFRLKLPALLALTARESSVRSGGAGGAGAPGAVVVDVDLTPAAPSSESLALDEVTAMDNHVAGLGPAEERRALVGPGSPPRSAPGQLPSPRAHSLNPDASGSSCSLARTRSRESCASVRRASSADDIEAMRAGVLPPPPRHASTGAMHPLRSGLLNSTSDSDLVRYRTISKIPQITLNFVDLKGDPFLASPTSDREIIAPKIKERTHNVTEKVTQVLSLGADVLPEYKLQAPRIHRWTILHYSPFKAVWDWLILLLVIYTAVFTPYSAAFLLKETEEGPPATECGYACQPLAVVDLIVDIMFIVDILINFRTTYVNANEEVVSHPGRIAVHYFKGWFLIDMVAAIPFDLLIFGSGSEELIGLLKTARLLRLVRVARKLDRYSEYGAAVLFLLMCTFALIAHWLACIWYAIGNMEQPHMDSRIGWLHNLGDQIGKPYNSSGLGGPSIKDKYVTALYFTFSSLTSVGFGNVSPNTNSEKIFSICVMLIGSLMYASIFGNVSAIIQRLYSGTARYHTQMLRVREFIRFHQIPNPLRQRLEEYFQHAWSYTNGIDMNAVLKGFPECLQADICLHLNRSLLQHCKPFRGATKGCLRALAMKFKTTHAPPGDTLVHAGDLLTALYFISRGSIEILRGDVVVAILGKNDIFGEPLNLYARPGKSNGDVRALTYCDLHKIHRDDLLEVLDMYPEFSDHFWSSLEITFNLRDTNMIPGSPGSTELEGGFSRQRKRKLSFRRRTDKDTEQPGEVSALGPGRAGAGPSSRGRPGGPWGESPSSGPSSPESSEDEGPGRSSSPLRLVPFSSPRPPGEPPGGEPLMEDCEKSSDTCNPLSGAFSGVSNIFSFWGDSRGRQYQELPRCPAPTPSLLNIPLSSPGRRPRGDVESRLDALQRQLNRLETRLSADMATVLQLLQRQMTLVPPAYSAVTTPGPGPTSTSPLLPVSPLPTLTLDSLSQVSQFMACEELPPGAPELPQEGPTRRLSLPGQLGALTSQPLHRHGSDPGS

SMILES	IC50 (rat NR1/NR2B receptor [1])	IC50 (rat NR1/NR2B receptor [2])	IC50 (hERG-receptor)
Cc1cc(-n2cc(Cn3ccnc3C(C)C)nn2)ccc1Cl [Example 71, 1-(4-Chloro-3-methyl-phenyl)-4-(2-isopropyl-imidazol-1-ylmethyl)-1H-[1,2,3]triazole]	4.47 nM	4.47 nM	10000 nM
Cc1cc(-n2cc(Cn3ccnc3CCO)nn2)ccc1Cl [Example 74, 1-(4-Chloro-3-methyl-phenyl)-4-[2-(2-hydroxy-ethyl)-imidazol-1-ylmethyl]-1H-[1,2,3]triazole]	6.9 nM	6.9 nM	33800 nM
Cc1nccn1Cc1cn(-c2cccc(C3CC3)c2)nn1 [Example 76, 1-(3-Cyclopropyl-phenyl)-4-(2-methyl-imidazol-1-ylmethyl)-1H-[1,2,3]triazole]	15.9 nM	15.9 nM	10300 nM
CS(=O)(=O)c1cccc(-n2cc(Cn3ccnc3CCF)nn2)c1 [Example 80, 4-[2-(2-Fluoro-ethyl)-imidazol-1-ylmethyl]-1-(3-methanesulfonyl-phenyl)-1H-[1,2,3]triazole]	2680 nM	2680 nM	> 100000 nM
CC(C)(C)c1nccn1Cc1cn(-c2ccc(F)c(C(F)F)c2)nn1 [Example 87, 1-(3-Difluoromethyl-4-fluoro-phenyl)-4-(2-tert.butyl-imidazol-1-ylmethyl)-1H-[1,2,3]triazole]	131 nM	131 nM	7520 nM
OCCc1nccn1Cc1cn(-c2ccc(F)c(C(F)F)c2)nn1 [Example 88, 1-(3-Difluoromethyl-4-fluoro-phenyl)-4-[2-(2-hydroxy-ethyl)-imidazol-1-ylmethyl]-1H-[1,2,3]triazole]	14.5 nM	14.5 nM	93400 nM
CC(C)c1nccn1Cc1cn(-c2ccc(Cl)c(C(F)F)c2)nn1 [Example 92, 1-(4-Chloro-3-difluoromethyl-phenyl)-4-(2-isopropyl-imidazol-1-ylmethyl)-1H-[1,2,3]triazole]	5.24 nM	5.24 nM	11300 nM
FC(F)Oc1cc(-n2cc(Cn3ccnc3C3CC3)nn2)ccc1Cl [Example 94, 1-(4-Chloro-3-difluoromethoxy-phenyl)-4-(2-cyclopropyl-imidazol-1-ylmethyl)-1H-[1,2,3]triazole]	3.91 nM	3.91 nM	3020 nM
CC(C)(C)c1nccn1Cc1cn(-c2ccc(Cl)c(OC(F)F)c2)nn1 [Example 95, 4-(2-tert-Butyl-imidazol-1-ylmethyl)-1-(4-chloro-3-difluoromethoxy-phenyl)-1H-[1,2,3]triazole]	72.9 nM	72.9 nM	5840 nM
CCc1nccn1Cc1cn(-c2ccc(Cl)c(OC(F)F)c2)nn1 [Example 96, 1-(4-Chloro-3-difluoromethoxy-phenyl)-4-(2-ethyl-imidazol-1-ylmethyl)-1H-[1,2,3]triazole]	1.6 nM	1.6 nM	4410 nM
Cc1nccn1Cc1cn(-c2ccc(F)c(OC(F)F)c2)nn1 [Example 100, 1-(3-Difluoromethoxy-4-fluoro-phenyl)-4-(2-methyl-imidazol-1-ylmethyl)-1H-[1,2,3]triazole]	1.9 nM	1.9 nM	12800 nM
Cc1nccn1Cc1cn(-c2cc(F)cc(C(F)F)c2)nn1 [Example 102]	25.9 nM	25.9 nM	16800 nM
Cc1nccn1Cc1cn(-c2ccc(F)c(C(C)(F)F)c2)nn1 [Example 105, 1-[3-(1,1-Difluoro-ethyl)-4-fluoro-phenyl]-4-(2-methyl-imidazol-1-ylmethyl)-1H-[1,2,3]triazole]	4.05 nM	4.05 nM	73100 nM
Cc1nc2ccccc2n1Cc1cn(-c2ccc(Cl)c(Cl)c2)nn1 [Example 117, 1-[[1-(3,4-dichlorophenyl)triazol-4-yl]methyl]-2-methyl-benzimidazole]	141 nM	141 nM	3090 nM
OCCc1nccn1Cn1cc(-c2ccc(S(F)(F)(F)(F)F)cc2)nn1 [Example 118, 2-(1-((1-(4-(pentafluoro-l6-sulfanyl)phenyl)-1H-1,2,3-triazol-4-yl)methyl)-1H-imidazol-2-yl)ethan-1-ol]	263 nM	263 nM	12300 nM

Further compounds by falling IC50 (rat NR1/NR2B receptor [1]), results first:

IC50 (rat NR1/NR2B receptor [1])	IC50 (rat NR1/NR2B receptor [2])	SMILES	IC50 (hERG-receptor)
615 nM	615 nM	Cc1nccn1Cc1cn(-c2cccc(S(C)(=O)=O)c2)nn1 [Example 77, 1-(3-Methanesulfonyl-phenyl)-4-(2-methyl-imidazol-1-ylmethyl)-1H-[1,2,3]triazole]	150000 nM
15.4 nM	15.4 nM	FC(F)c1cc(-n2cc(Cn3ccnc3C3CC3)nn2)ccc1Cl [Example 90, 1-(4-Chloro-3-difluoromethyl-phenyl)-4-(2-cyclopropyl-imidazol-1-ylmethyl)-1H-[1,2,3]triazole]	5350 nM
13.5 nM	13.5 nM	Cc1cc(-n2cc(Cn3ccnc3CCF)nn2)ccc1Cl [Example 75, 1-(4-Chloro-3-methyl-phenyl)-4-[2-(2-fluoro-ethyl)-imidazol-1-ylmethyl]-1H-[1,2,3]triazole]	32800 nM
6.02 nM	6.02 nM	FCCc1nccn1Cc1cn(-c2ccc(Cl)c(OC(F)F)c2)nn1 [Example 99, 1-(4-Chloro-3-difluoromethoxy-phenyl)-4-[2-(2-fluoro-ethyl)-imidazol-1-ylmethyl]-1H-[1,2,3]triazole]	23800 nM
4.11 nM	4.11 nM	CCc1nccn1Cc1cn(-c2ccc(F)c(C(F)F)c2)nn1 [Example 83, 1-(3-Difluoromethyl-4-fluoro-phenyl)-4-(2-ethyl-imidazol-1-ylmethyl)-1H-[1,2,3]triazole]	16700 nM
3.37 nM	3.37 nM	Cc1nccn1Cc1cn(-c2ccc(Cl)c(C(F)F)c2)nn1 [Example 89, 1-(4-Chloro-3-difluoromethyl-phenyl)-4-(2-methyl-imidazol-1-ylmethyl)-1H-[1,2,3]triazole]	8520 nM
2.43 nM	2.43 nM	CCc1nccn1Cc1cn(-c2ccc(Cl)c(C(F)F)c2)nn1 [Example 91, 1-(4-Chloro-3-difluoromethyl-phenyl)-4-(2-ethyl-imidazol-1-ylmethyl)-1H-[1,2,3]triazole]	7190 nM
